Columns and labels:
Format in all cases: in vivo, Caenorhabditis elegans
[1] = tested on: CW152 gas-1(fc21) X; experiment: Ethanol sensitivity of gas-1 ts mutant; settings: 0.4 M EtOH, after 3 days of treatment
Procedure: (§2) Scoring for paralysis was initiated 2 and 8 days after temperature upshift for CL4176 and AM140, respectively. […] For sensitivity to EtOH or levamisole resistance, CW152 gas-1 (fc21) X and ZZ26 unc-63(x26)I worms were picked into 0.4 M EtOH or 50 μM levamisole, respectively, equilibrated for 5 min, and scored for paralysis as described above. Treated and untreated worms were compared with an unpaired t-test (implemented in Prism 4, Graphpad™ Software, Inc., San Diego, Calif., USA).

[2] = tested on: PS3551 [hsf-1(sy441)I]; experiment: Lifespan assay, hsf-1 mutant; settings: 50 μM ThT, 100 μM curcumin
Procedure: Lifespan assays were performed as described previously. (McColl, G. et al. Pharmacogenetic analysis of lithium-induced delayed aging in Caenorhabditis elegans. J Biol Chem 283, 350-357 (2008). Briefly, the nematode growth media (NGM) plates were prepared under sterile conditions. 100 μL of concentrated stocks of each of the compounds used in this study were added onto a previously prepared NGM small plate (3 mL volume) immediately spread over the surface of the plate. The final concentrations quoted in the text assume an even distribution of compound throughout the 3 ml plate. The plates were then placed in a laminar flow hood at room temperature for 30 min and then 60 μL of a concentrated suspension of E. coli OP50 was spotted to form a circular lawn on the center of each plate. Thirty late L4 larvae growing at 20° C. were transferred to fresh NGM plates with FUdR (75 μM) in presence or absence of the specified compounds and incubated at 20° C. The first day of adulthood is Day 3 in survival curves. […] ThT concentration should be optimized depending on batch and purity and stability of the compound.
Animals were scored as alive, dead or lost every other day. […] Animals that died from causes other than ageing, such as sticking to the plate walls, internal hatching of eggs (“bagging”) or gonadal extrusion were censored as were lost worms. […]

[3] = tested on: aggregation-prone soluble oligomeric protein (A11 antibody) in CL4176; experiment: A11 immunolocalization of soluble oligomeric protein, CL4176; settings: CL4176, 50 μM ThT
Procedure: For fluorescent microscopy, TJ356 zIs356 IV [daf-16::daf-16-gfp+rol-6] or CF2189 Is001(skn-1::gfp+rol-6) were paralyzed with 1 mM levamisole mounted on 1% agarose pads and imaged using Olympus BX51 (60× objective) and HCImage software (Hamamatsu). For immunofluorescence, N2, […], CB1157 unc-54(e1157) or CL4176 dvIs27 [myo-3::Aβ(3 to 42)-let 3′UTR(pAF29); pRF4 (rol-6(su1006))] worms were treated for 24-36 h with or without 50 μM ThT at 25° C. After this period the worms were collected, rinsed, and fixed in 4% paraformaldehyde overnight. […] Paramyosin and perlecans were detected with primary monoclonal antibodies 5-23 and MH3 (developed by Henry Epstein and Robert H. Waterston and obtained from the Developmental Studies Hybridoma Bank developed under the auspices of the NICHD and maintained by The University of Iowa, Department of Biology, Iowa City, Iowa 52242) and AlexaFluor 633 goat anti-mouse (Molecular Probes) as secondary antibody. Soluble oligomers and Aβ peptide were detected with anti polyclonal All (Invitrogen) and 6E10 monoclonal (Covance) primary antibodies, respectively, with AlexaFluor 568 goat anti-rabbit and AlexaFluor 488 goat anti-mouse (Molecular Probes) as secondary antibodies. Images were processed and quantified by using Image Analyst MK II (Novato, Calif.).

[4] = tested on: HSF-1 RNA; experiment: Real time quantitative PCR, hsf-1; settings: 50 μM ThT, 3, 6 and 12 days of treatment
Procedure: (§1) Twelve single adults from control or 50 μM ThT populations were picked after 3, 6 and 12 days of treatment into 5 μl of distilled water and flash frozen until extraction. Individual worms were extracted using the RNeasy Micro Kit, TissueLyser and QIAcube (Qiagen). Using the manufacturer's standard Animal Tissue protocol, each sample was homogenized in buffer RLT/Bme (Qiagen) on the TissueLyser (6 min total at 20 Hz). Samples, reagents and columns were then loaded into the QIAcube robot, and processed using the “RNeasy Micro—Animal tissues and cells—DNase digest” program. Each sample was then eluted in 14 μl of Nuclease-free water. cDNA templates for the Real Time PCR reactions were made using a combination of Message Sensor RT kit (Ambion's) and TaqMan PreAmp Master Mix (Applied Biosystems). The entire worm sample was added to the RT reaction and reversed transcribed at 50° C. for 20 min, using Message Sensor's “Two Step RT-PCR Protocol” (sample RT's were randomized). Then 2.5 μl of the cDNA sample was pre-amplified with a “4×Multiplex Primer Mix” for 14 cycles using TaqMan PreAmp master mix and protocol (ABI). Two modifications were made to ABI's protocol: 1. the reaction volume was reduced to 10 μl and 2. after pre-amplification, each cDNA sample was diluted 1:5 with 1XTE Buffer (Promega). cDNA samples were stored at −20° C. until needed. […]

[5] = tested on: CB1157 [unc-54(e1157)I]; experiment: Worm paralysis assay, unc-54 ts mutant; settings: restrictive temperature 25° C.
Procedure: as §2

[6] = tested on: unc-54 RNA; experiment: Real time quantitative PCR, unc-54; settings: 50 μM ThT, 3, 6 and 12 days of treatment
Procedure: as §1

[7] = tested on: AM140 (rmIs132[P(unc-54) Q35::YFP]); experiment: Worm paralysis assay, polyQ model; settings: AM140, 25° C., 8 days; 50 μM ThT, 100 μM curcumin
Procedure: as §2

[8] = tested on: TJ1052 [age-1(hx546)II]; experiment: Lifespan assay, age-1 mutant; settings: 50 μM ThT, 25° C.
Procedure: Lifespan assays were performed as described previously. (McColl, G. et al. Pharmacogenetic analysis of lithium-induced delayed aging in Caenorhabditis elegans. J Biol Chem 283, 350-357 (2008). Briefly, the nematode growth media (NGM) plates were prepared under sterile conditions. 100 μL of concentrated stocks of each of the compounds used in this study were added onto a previously prepared NGM small plate (3 mL volume) immediately spread over the surface of the plate. The final concentrations quoted in the text assume an even distribution of compound throughout the 3 ml plate. The plates were then placed in a laminar flow hood at room temperature for 30 min and then 60 μL of a concentrated suspension of E. coli OP50 was spotted to form a circular lawn on the center of each plate. Thirty late L4 larvae growing at 20° C. were transferred to fresh NGM plates with FUdR (75 μM) in presence or absence of the specified compounds and incubated at 20° C. The first day of adulthood is Day 3 in survival curves. There was between-experiment variation in the magnitude of the lifespan extension observed with ThT which appeared to correlate with different suppliers and batches. ThT concentration should be optimized depending on batch and purity and stability of the compound. […]
Animals were scored as alive, dead or lost every other day. […]

Cc1ccc2c(c1)sc(-c1ccc(N(C)C)cc1)[n+]2C.[Cl-] [ThT, 4-(3,6-dimethyl-1,3-benzothiazol-3-ium-2-yl)-N,N-dimethylaniline chloride]
ethanol sensitivity [1]: decreases the ethanol sensitivity | lifespan of hsf-1(sy441) mutant [2]: does not increase lifespan | A11-positive oligomeric material [3]: significantly decreased | HSF-1 RNA levels [4]: no changes were detected | paralysis phenotype of unc-54 mutant [5]: suppressed paralysis | unc-54 RNA levels [6]: increases unc-54 RNA levels after 3, but not at 6 or 12 days of treatment | proportion of paralyzed worms [7]: significantly decrease the proportion of paralyzed worms | lifespan of age-1(hx546) mutant [8]: extended the lifespan

From patent publication US20110081428A1, “Use of thioflavin-like compounds to increase life span and/or health span” (priority 2009, published 2011)
